Eleven compounds from ChEMBL document CHEMBL2417483, “Synthesis of thiosemicarbazones derived from N-(4-hippuric acid)thiosemicarbazide and different carbonyl compounds as antimicrobial agents” (2013) can be followed below.

The term MIC denotes the least concentration at which growth counts as inhibited. Low readings indicate a more susceptible organism, high ones a less susceptible organism.

≈ marks a conversion by molar mass, not a printed value.

Holding throughout (type): functional
For assay [1], the system named is Staphylococcus aureus. Description: Antibacterial activity against Staphylococcus aureus ATCC 29213 assessed as growth inhibition at 1 mg/mL after 24 hrs by agar well diffusion assay. The settings on record: ATCC 29213, 24 h, read-out: DIZ.
In assay [2] the test system is Bacillus spizizenii. Put plainly: Antibacterial activity against Bacillus subtilis ATCC 6633 assessed as growth inhibition at 1 mg/mL after 24 hrs by agar well diffusion assay. The following applies: ATCC 6633, 24 h, read-out: DIZ. In general terms: Agar diffusion results depend on both activity and mobility in agar.
The test system of assay [3] is Priestia megaterium. Description: Antibacterial activity against Bacillus megaterium ATCC 9885 assessed as growth inhibition at 1 mg/mL after 24 hrs by agar well diffusion assay. The settings on record: ATCC 9885, 24 h, read-out: DIZ.
The subject of assay [4] is Micrococcus luteus. Put plainly: Antibacterial activity against Sarcina luteus assessed as growth inhibition at 1 mg/mL after 24 hrs by agar well diffusion assay. The settings on record: read-out: DIZ.
Assay [5] has as its system Escherichia coli. Description: Antibacterial activity against Escherichia coli ATCC 25922 assessed as growth inhibition at 1 mg/mL after 24 hrs by agar well diffusion assay. The following applies: ATCC 25922, 24 h, read-out: DIZ.
For assay [6], the system named is Candida albicans. Put plainly: Antifungal activity against Candida albicans NRRLY 477 assessed as growth inhibition at 1 mg/mL after 24 hrs by agar well diffusion assay. The following applies: NRRLY 477, 24 h, read-out: DIZ.
Assay [7] concerns Klebsiella pneumoniae. Description: Antibacterial activity against Klebsiella pneumoniae ATCC 13883 assessed as growth inhibition at 1 mg/mL after 24 hrs by agar well diffusion assay. The settings on record: ATCC 13883, 24 h, read-out: DIZ.
For assay [8], the system named is Saccharomyces cerevisiae. Put plainly: Antifungal activity against Saccharomyces cerevisiae assessed as growth inhibition at 1 mg/mL after 24 hrs by agar well diffusion assay. The following applies: read-out: DIZ.
In assay [9] the test system is Pseudomonas aeruginosa. Put plainly: Antibacterial activity against Pseudomonas aeruginosa ATCC 27953 assessed as growth inhibition at 1 mg/mL after 24 hrs by agar well diffusion assay. The settings on record: ATCC 27953, 24 h, read-out: DIZ.
The test system of assay [10] is Proteus vulgaris. Put plainly: Antibacterial activity against Proteus vulgaris assessed as growth inhibition at 1 mg/mL after 24 hrs by agar well diffusion assay. The settings on record: read-out: DIZ.
Assay [11] relates to Proteus vulgaris. Put plainly: Bacteriostatic activity against Proteus vulgaris after 24 hrs by two-fold serial dilution assay.
Assay [12] deals with Klebsiella pneumoniae. Description: Bacteriostatic activity against Klebsiella pneumoniae ATCC 13883 after 24 hrs by two-fold serial dilution assay. The following applies: ATCC 13883, 24 h.
Assay [13] deals with Staphylococcus aureus. Description: Bacteriostatic activity against Staphylococcus aureus ATCC 29213 after 24 hrs by two-fold serial dilution assay. The following applies: ATCC 29213, 24 h.
The test system of assay [14] is Escherichia coli. Description: Bacteriostatic activity against Escherichia coli ATCC 25922 after 24 hrs by two-fold serial dilution assay. The following applies: ATCC 25922, 24 h.
In assay [15] the test system is Pseudomonas aeruginosa. Put plainly: Bacteriostatic activity against Pseudomonas aeruginosa ATCC 27953 after 24 hrs by two-fold serial dilution assay. The settings on record: ATCC 27953, 24 h.
Assay [16] concerns Candida albicans. Description: Fungistatic activity against Candida albicans NRRLY 477 after 24 hrs by two-fold serial dilution assay. The following applies: NRRLY 477, 24 h.
Assay [17] concerns Bacillus spizizenii. Description: Bacteriostatic activity against Bacillus subtilis ATCC 6633 after 24 hrs by two-fold serial dilution assay. The following applies: ATCC 6633, 24 h.
Assay [18] has as its system Escherichia coli. Description: Potency index, ratio of ciprofloxacin MIC to compound MIC for Escherichia coli ATCC 25922.
Assay [19] deals with Priestia megaterium. Description: Bacteriostatic activity against Bacillus megaterium ATCC 9885 after 24 hrs by two-fold serial dilution assay. The following applies: ATCC 9885, 24 h.
For assay [20], the system named is Micrococcus luteus. Put plainly: Bacteriostatic activity against Sarcina luteus after 24 hrs by two-fold serial dilution assay.
The subject of assay [21] is Saccharomyces cerevisiae. Put plainly: Fungistatic activity against Saccharomyces cerevisiae after 24 hrs by two-fold serial dilution assay.
In assay [22] the test system is Pseudomonas aeruginosa. Description: Potency index, ratio of ciprofloxacin MIC to compound MIC for Pseudomonas aeruginosa ATCC 27953.

With `C/C(=N\NC(=S)Nc1ccc(C(=O)NCC(=O)O)cc1)c1ccc(Br)cc1`, the zone of inhibition at 1000 µg/mL is 20 mm with Staphylococcus aureus [1]; 15 mm in the assay on Bacillus spizizenii [2]; 17 mm with Priestia megaterium [3]; 25 mm with Micrococcus luteus [4]; 23 mm in the assay on Escherichia coli [5]; 0 mm in the assay on Candida albicans [6]. Also, the zone of inhibition at 1000 µg/mL was determined as 19 mm with Klebsiella pneumoniae [7], 18 mm with Saccharomyces cerevisiae [8], 19 mm in the assay with Pseudomonas aeruginosa [9] and 20 mm with Proteus vulgaris [10].
On to `C/C(=N\NC(=S)Nc1ccc(C(=O)NCC(=O)O)cc1)c1ccccc1`, for which the zone of inhibition at 1000 µg/mL in the assay with Staphylococcus aureus [1] came out at 20 mm; in the assay on Bacillus spizizenii [2], 14 mm; in the assay with Priestia megaterium [3], 18 mm; in the assay on Micrococcus luteus [4], 25 mm; in the assay with Escherichia coli [5], 19 mm; with Candida albicans [6], 0 mm. The zone of inhibition at 1000 µg/mL in the assay on Klebsiella pneumoniae [7] was 18 mm; with Saccharomyces cerevisiae [8], 17 mm; in the assay on Pseudomonas aeruginosa [9], 19 mm; in the assay with Proteus vulgaris [10], 19 mm.
Consider `O=C(O)CNC(=O)c1ccc(NC(=S)N/N=C2/CC(=O)c3ccccc32)cc1`, for which the zone of inhibition at 1000 µg/mL in the assay with Staphylococcus aureus [1] was determined as 28 mm; in the assay on Bacillus spizizenii [2] it was 9 mm; in the assay on Priestia megaterium [3] it was 0 mm; in the assay with Micrococcus luteus [4], 24 mm; with Escherichia coli [5], 18 mm; in the assay on Candida albicans [6], 0 mm. The zone of inhibition at 1000 µg/mL was determined as 0 mm in the assay on Klebsiella pneumoniae [7], 12 mm in the assay with Saccharomyces cerevisiae [8], 11 mm in the assay on Pseudomonas aeruginosa [9] and 20 mm in the assay with Proteus vulgaris [10].
Regarding `O=C(O)CNC(=O)c1ccc(NC(=S)NN=C(c2ccccc2)c2ccccc2)cc1`, the zone of inhibition at 1000 µg/mL with Staphylococcus aureus [1] stood at 0 mm; with Bacillus spizizenii [2], 20 mm; with Priestia megaterium [3] it was 15 mm; in the assay on Micrococcus luteus [4], 0 mm; in the assay on Escherichia coli [5] it was 17 mm; with Candida albicans [6] it was 0 mm. Further, the zone of inhibition at 1000 µg/mL was 0 mm in the assay with Klebsiella pneumoniae [7], 0 mm in the assay on Saccharomyces cerevisiae [8], 12 mm in the assay on Pseudomonas aeruginosa [9] and 0 mm with Proteus vulgaris [10].
Take `Cc1ccc(/C=N/NC(=S)Nc2ccc(C(=O)NCC(=O)O)cc2)cc1`: the zone of inhibition at 1000 µg/mL amounted to 10 mm in the assay on Staphylococcus aureus [1]; 0 mm with Bacillus spizizenii [2]; 9 mm in the assay with Priestia megaterium [3]; 24 mm in the assay with Micrococcus luteus [4]; 0 mm in the assay with Escherichia coli [5]; 0 mm in the assay with Candida albicans [6]. Further, the zone of inhibition at 1000 µg/mL in the assay on Klebsiella pneumoniae [7] turned out to be 0 mm; in the assay with Saccharomyces cerevisiae [8] it was 0 mm; in the assay on Pseudomonas aeruginosa [9], 0 mm; in the assay with Proteus vulgaris [10], 20 mm.
Regarding `O=C(O)CNC(=O)c1ccc(NC(=S)N/N=C/c2ccc(F)cc2)cc1`, the MIC in the assay with Proteus vulgaris [11] was 12.5 µg/mL (≈ 33.4 µM); in the assay on Klebsiella pneumoniae [12] it was 12.5 µg/mL (≈ 33.4 µM); in the assay with Staphylococcus aureus [13], 6.25 µg/mL (≈ 16.7 µM); against Escherichia coli [14] it was 6.25 µg/mL (≈ 16.7 µM); in the assay on Pseudomonas aeruginosa [15], 25 µg/mL (≈ 66.8 µM); against Candida albicans [16], 50 µg/mL (≈ 134 µM). The minimum inhibitory concentration (MIC) worked out at 12.5 µg/mL (≈ 33.4 µM) in the assay with Bacillus spizizenii [17], 12.5 µg/mL (≈ 33.4 µM) with Priestia megaterium [19], 25 µg/mL (≈ 66.8 µM) in the assay on Micrococcus luteus [20] and 12.5 µg/mL (≈ 33.4 µM) with Saccharomyces cerevisiae [21]. Also, the zone of inhibition at 1000 µg/mL was found to be 28 mm with Staphylococcus aureus [1]; 20 mm in the assay on Bacillus spizizenii [2]; 19 mm in the assay on Priestia megaterium [3]; 28 mm in the assay with Micrococcus luteus [4]; 31 mm in the assay on Escherichia coli [5]; 20 mm in the assay on Candida albicans [6]. The zone of inhibition at 1000 µg/mL with Klebsiella pneumoniae [7] was found to be 30 mm; in the assay on Saccharomyces cerevisiae [8] it was 20 mm; in the assay on Pseudomonas aeruginosa [9], 30 mm; in the assay with Proteus vulgaris [10], 26 mm. Moreover, the PI in the assay on Escherichia coli [18] worked out at 2.
With `O=C(O)CNC(=O)c1ccc(NC(=S)N/N=C/c2ccc([N+](=O)[O-])cc2)cc1`, the zone of inhibition at 1000 µg/mL stood at 11 mm in the assay on Staphylococcus aureus [1]; 15 mm in the assay on Bacillus spizizenii [2]; 14 mm in the assay on Priestia megaterium [3]; 0 mm with Micrococcus luteus [4]; 0 mm with Escherichia coli [5]; 0 mm in the assay on Candida albicans [6]. For the same compound, the zone of inhibition at 1000 µg/mL in the assay on Klebsiella pneumoniae [7], in the assay with Saccharomyces cerevisiae [8], in the assay with Pseudomonas aeruginosa [9] and in the assay with Proteus vulgaris [10] was 0 mm each time.
On to `O=C(O)CNC(=O)c1ccc(NC(=S)N/N=C/c2cccc(Br)c2)cc1`, for which the zone of inhibition at 1000 µg/mL came to 18 mm in the assay on Staphylococcus aureus [1]; 13 mm in the assay with Bacillus spizizenii [2]; 18 mm in the assay on Priestia megaterium [3]; 18 mm with Micrococcus luteus [4]; 20 mm in the assay with Escherichia coli [5]; 0 mm in the assay on Candida albicans [6]. The zone of inhibition at 1000 µg/mL with Klebsiella pneumoniae [7] came out at 9 mm; in the assay with Saccharomyces cerevisiae [8] it was 11 mm; in the assay on Pseudomonas aeruginosa [9], 11 mm; in the assay on Proteus vulgaris [10], 0 mm.
Turning to `O=C(O)CNC(=O)c1ccc(NC(=S)NN=C2CCCCC2)cc1`, the zone of inhibition at 1000 µg/mL with Staphylococcus aureus [1] is 11 mm; with Bacillus spizizenii [2] it was 0 mm; in the assay on Priestia megaterium [3], 9 mm; in the assay with Micrococcus luteus [4], 24 mm; in the assay on Escherichia coli [5], 0 mm; with Candida albicans [6] it was 0 mm. The zone of inhibition at 1000 µg/mL in the assay on Klebsiella pneumoniae [7] came to 0 mm; with Saccharomyces cerevisiae [8], 0 mm; in the assay on Pseudomonas aeruginosa [9], 12 mm; in the assay on Proteus vulgaris [10], 20 mm.
For the compound `C/C(=N\NC(=S)Nc1ccc(C(=O)NCC(=O)O)cc1)c1ccc(Cl)cc1`, the zone of inhibition at 1000 µg/mL with Staphylococcus aureus [1] amounted to 9 mm; in the assay on Bacillus spizizenii [2], 15 mm; with Priestia megaterium [3], 14 mm; in the assay on Micrococcus luteus [4] it was 0 mm; in the assay on Escherichia coli [5], 0 mm; with Candida albicans [6], 0 mm. Besides, the zone of inhibition at 1000 µg/mL with Klebsiella pneumoniae [7], in the assay with Saccharomyces cerevisiae [8], with Pseudomonas aeruginosa [9] and in the assay with Proteus vulgaris [10] was 0 mm in each case.
With `C/C(=N\NC(=S)Nc1ccc(C(=O)NCC(=O)O)cc1)c1ccc(C)cc1`, the PI with Pseudomonas aeruginosa [22] is 4; with Escherichia coli [18], 2. For the same compound, the MIC in the assay with Proteus vulgaris [11] is 12.5 µg/mL (≈ 32.5 µM); in the assay with Klebsiella pneumoniae [12], 25 µg/mL (≈ 65 µM); against Staphylococcus aureus [13], 6.25 µg/mL (≈ 16.3 µM); with Escherichia coli [14] it was 6.25 µg/mL (≈ 16.3 µM); in the assay on Pseudomonas aeruginosa [15] it was 3.12 µg/mL (≈ 8.12 µM); in the assay with Candida albicans [16], 25 µg/mL (≈ 65 µM). The MIC was 12.5 µg/mL (≈ 32.5 µM) in the assay with Bacillus spizizenii [17], 12.5 µg/mL (≈ 32.5 µM) against Priestia megaterium [19], 12.5 µg/mL (≈ 32.5 µM) in the assay with Micrococcus luteus [20] and 6.25 µg/mL (≈ 16.3 µM) in the assay with Saccharomyces cerevisiae [21]. The zone of inhibition at 1000 µg/mL was found to be 29 mm with Staphylococcus aureus [1]; 19 mm in the assay with Bacillus spizizenii [2]; 25 mm in the assay on Priestia megaterium [3]; 25 mm with Micrococcus luteus [4]; 27 mm in the assay on Escherichia coli [5]; 25 mm in the assay on Candida albicans [6]. Moreover, the zone of inhibition at 1000 µg/mL came to 22 mm with Klebsiella pneumoniae [7], 26 mm in the assay on Saccharomyces cerevisiae [8], 32 mm with Pseudomonas aeruginosa [9] and 21 mm with Proteus vulgaris [10].
